# Laboratory results reported in patent US12558369B2, “Compositions and methods of treating Fanconi Anemia” (Dana-Farber Cancer Institute, Inc., priority 2015, dated 2026).
# “Also recorded” adds a separate entry of the source.
# Assays:
# Fancd2-deficient mice = test: pIpC physiological stress-induced bone marrow failure, LT-HSC DNA damage; type: in vivo, mouse
# Description: FIG. 13. […] Mice were pretreated in vivo with either no Tgfβ inhibitor, the neutralizing antibody to Tgfβ 1, 2, 3, or the Tgfβ receptor kinase inhibitor, Galunisertib.
# [1] = test system: Fancd2−/− BM Stromal cells; test: Colony forming capacity of bone marrow stromal cells; type: cell-based, mouse; settings: 1 μM Mek-i
# Protocol: FIG. 3. […] Fancd2+/+ stromal cells shown as a control. • B) Colony forming capacity of Fancd2−/− BM Stromal cells is improved by treatment with 1 μM Mek-i. • C) Immunoblot analysis showing deletion of Tgfbr1, Smad3 and p53 in murine Fancd2+/+ and Fancd2−/− stromal cells • D) Survival of Fancd2−/− stromal cells with deletion of Tgfbr1, Smad3 or p53 in presence of MMC. Error bars represent s.e.m.
# FIG. 9. […] Representative image of colonies of Fancd2+/+ and Fancd2−/− cells incubated with or without 1 μM Mek inhibitor.
# (§1) For survival assays, cells were seeded at a density of 1×10^3 cells per well in 96-well plates. After 72 hours of culture in indicated concentrations of MMC or post exposure of acetaldehyde, viability was assessed using CellTiterGlo reagent (Promega). In order to assess clonogenicity, cells were seeded at a low density (500-1000 cells per well) in 6-well plates and allowed to form colonies. The cells were then fixed in methanol/20% acetic acid and stained with 1% crystal violet. Colony formation was assessed by solubilizing crystal violet stain with methanol and quantifying UV absorbance for each condition.
# Fancd2−/− stromal cells = test: Immunoblot of phosphorylated Erk1/2 in bone marrow stromal cells; type: cell-based, mouse
# Protocol: FIG. 2. Characterization of FA murine primary bone marrow stromal fibroblast. • A) Survival of Fancd2+/+ or Fancd2−/− stromal cells in the presence of MMC. Data are shown in triplicate. […] (Left panel) Active mouse Tgfβ1 serum levels in the culture supernatant of Fancd2+/+ or Fancd2−/− stromal cells were evaluated by ELISA. (Right panel) qRT-PCR analysis of Tgfb1 mRNA expression. Data are shown the average of three independent experiments. Error bars represent s.e.m. • C) Immunoblots of phosphorylated Erk1/2 in stromal cells treated with Tgfβ for the indicated time.
# FIG. 3. […] Error bars represent s.e.m.
# Human FA cells EUFA316 were grown in RPMI1640 (Life Technologies) supplemented with 10% fetal calf serum. Fancd2^+/+ and Fancd2^−/− bone marrow stromal cells were established by culturing whole bone marrow in DMEM with 10% FBS. Fancd2^−/− stromal cells were complemented with human FANCD2 by retroviral transduction of FANCD2 cDNA in pMMP-PURO vector, followed by selection in puromycin. Whole cell extracts were prepared by lysing cells in radioimmunoprecipitation assay buffer (50 mmol/L Tris, pH 7.3, 150 mmol/L NaCl, 1 mmol/L EDTA, 1% Triton X-100, 0.5% Na-deoxycholate, and 0.1% SDS) with complete protease inhibitor, NaVO4, and NaF.
# U2OS cells [2] = test: NHEJ reporter assay; type: cell-based, human; settings: template reporter assay
# U2OS cells [3] = test: Immunoblot of DNA-PK phosphorylation; type: cell-based, human
# [4] = test system: EUFA316 (FA-G fibroblasts); test: MMC sensitivity survival assay of FA cells with TGFβ pathway inhibitors; type: cell-based, human
# Protocol: FIG. 1. TGFβ pathway disruption enhances FA cellular growth. • A) RIGER P value analysis to identify top candidate genes. • B) Clonogenic survival of GM6914 (FA-A fibroblasts) and FANCA-corrected GM6914 cells after shRNA mediated knockdown of SMAD3. Cells were treated with increasing doses of MMC and plated for 10-12 days. The average of two experiments is presented; error bars represent s.e.m.
# as §1
# as §1, with “3-6 days” for “72 hours”, “Colonies were counted after” for “Colony formation was assessed by solubilizing”, “staining.” for “stain with methanol and quantifying UV absorbance for each condition.”
# FA-like HSPCs = test: γH2AX and 53BP1 foci after MMC in FA-like HSPCs; type: cell-based, human
# Description: (§2) (A) Hierarchical clustering and heat-map of the expression of TGF-β pathway genes in human FA and non-FA bone marrow samples using gene set enrichment analysis. (B-F) Colony forming assays using primary CD34+ bone marrow cells from five FA patients. Cells were transduced with lentiviruses encoding shControl, shTP53 or shSMAD3 followed by selection for puromycin resistance and then plated in methylcellulose cultures or the cells were directly plated in methylcellulose cultures containing GC1008 for colony growth. The hematopoietic colonies were counted after 10 days in culture. (G-I) Colony forming assays using FA-like CD34+ cells from human cord blood. As shown in the schematic (G), FA-like CD34+ cells were generated by transducing human cord blood CD34+ cells with lentivirus encoding shFANCD2. […] Hematopoietic colonies were counted after 10-14 days in culture (I). […] Hematopoietic colonies were counted after 10-14 days in culture. […] Human cells were analyzed in the peripheral blood at 2 weeks post transplantation. […] Representative images (L) and quantification (M) of γH2AX foci in cord blood CD34+ cells transduced with lentivirus encoding shFANCD2 or shControl. […] Cells were then analyzed for γH2AX foci by immunofluorescence. Thirty to hundred cells with more than 5 foci were counted for each sample. […]
# HSPCs. […] Representative images (F) and quantification (G) of 53BP1 foci are shown.
# [5] = test system: FA-like CD34+ cells from human cord blood; test: Colony forming assay of FA-like CD34+ cells; type: cell-based; settings: GC1008 10 μg/mL, colonies after 10-14 days
# Description: as §2, with “blood.” for “blood. As shown in the schematic (G), FA-like CD34+ cells were generated by transducing human cord blood CD34+ cells with lentivirus encoding shFANCD2.”
# (§3) (Dataset: GSE16334). […] Cells were cultured in methylcellulose medium post MMC treatment (2 h at 100 ng/mL) and hematopoietic colonies were counted after 10 days in culture. […] Hematopoietic colonies were counted after 10-14 days in culture. […]
# [6] = test system: FA-like CD34+ cells in NSG mice; test: In vivo xenograft assay of FA-like CD34+ cells; design: species or system mouse; settings: 10 mg/kg, 3 doses per week for 2 weeks, peripheral blood at 2 and 8 weeks
# Description: as §2, with “blood.” for “blood. As shown in the schematic (G), FA-like CD34+ cells were generated by transducing human cord blood CD34+ cells with lentivirus encoding shFANCD2.”
# as §3
# [7] = test system: primary HSPCs from bone marrow of FA patients; test: Colony forming assay of primary CD34+ bone marrow cells from FA patients; type: cell-based, human; settings: methylcellulose, colonies after 10 days
# Description: (A) Hierarchical clustering and heat-map of the expression of TGF-β pathway genes in human FA and non-FA bone marrow samples using gene set enrichment analysis. (B-F) Colony forming assays using primary CD34+ bone marrow cells from five FA patients. Cells were transduced with lentiviruses encoding shControl, shTP53 or shSMAD3 followed by selection for puromycin resistance and then plated in methylcellulose cultures or the cells were directly plated in methylcellulose cultures containing GC1008 for colony growth. The hematopoietic colonies were counted after 10 days in culture. (G-I) Colony forming assays using FA-like CD34+ cells from human cord blood. As shown in the schematic (G), FA-like CD34+ cells were generated by transducing human cord blood CD34+ cells with lentivirus encoding shFANCD2. […] Hematopoietic colonies were counted after 10-14 days in culture (I). (J) Colony forming assay of FA-like CD34+ cells with GC1008 treatment. Hematopoietic colonies were counted after 10-14 days in culture. […] Human cells were analyzed in the peripheral blood at 2 weeks post transplantation. […] Representative images (L) and quantification (M) of γH2AX foci in cord blood CD34+ cells transduced with lentivirus encoding shFANCD2 or shControl. […] Cells were then analyzed for γH2AX foci by immunofluorescence. Thirty to hundred cells with more than 5 foci were counted for each sample. […]
# Fancd2−/− HSPCs = test: Clonogenic assay of HSPCs in methylcellulose; type: cell-based, mouse; settings: TGF-β1 1 ng/mL, Ab 10 μg/mL or SD208 10 μM; colonies after 7-10 days
# Protocol: (A) Expression of phospho-Smad2/3 proteins in HSPCs from WT and Fancd2−/− mice as detected by flow cytometric analysis. (B) Quantification of mean fluorescence intensity (MFI) of phospho-Smad2/3 staining by flow cytometric analysis shown in (A) in HSPCs from WT and Fancd2−/− mice. (C) Fancd2−/− HSPCs are more sensitive to TGF-β1 than WT HSPCs. Sorted Lin− cells from WT or Fancd2−/− mice were exposed to TGF-β1. After 5 days in culture, LSK cells were analyzed by flow cytometry and quantified. Data are shown after normalizing to untreated WT group. […] Sorted Lin− cells from WT and Fancd2−/− mice were exposed to TGF-β1 (1 ng/mL) with or without TGF-beta 1,2,3 Ab (10 μg/mL) or SD208 (10 μM), and viable cells were counted after 5 days in culture. Data shown are after normalizing to untreated WT group. Error bars represent mean±s.e.m. (F) Clonogenic assay of WT and Fancd2−/− HSPCs treated with TGF-β1, TGF-beta 1, 2, 3 Ab or SD208. […] Hematopoietic colonies were counted after 7-10 days in culture. […] (I) Representative FACS plots of LSK cells analyzed by flow cytometry for GFP expression after 5 days in vitro culture in stem cell culture medium. […] Luciferase activity was measured. (L) Binding of FANCD2 to SMAD1 promoter (region −2108 to −1950 bp) upon DNA damage as detected by ChIP assay using anti-FANCD2 antibody in corrected GM6914 (+FANCA) but not GM6914 (+Vector) fibroblast cells. […]
# [8] = mice pretreated in vivo, LT-HSCs isolated
molecule,measurement,setting,value
Cc1cccc(-c2nn3c(c2-c2ccnc4ccc(C(N)=O)cc24)CCC3)n1 [Galunisertib],"pIpC-induced DNA damage in LT-HSCs, comet assay",Fancd2-deficient mice; [8],rescued the pIpC-induced DNA damage
same,"pIpC-induced DNA damage, gamma H2AX foci",Fancd2-deficient mice; [8],rescued the pIpC-induced DNA damage
same,physiological stress-induced bone marrow failure,"Fancd2-deficient mice; mice, pIpC, pretreated in vivo",rescues physiological stress-induced bone marrow failure
O=C(NOC[C@H](O)CO)c1ccc(F)c(F)c1Nc1ccc(I)cc1F [PD0325901],clonogenicity / colony forming capacity of Fancd2−/− stromal cells,[1],significantly increased the clonogenicity
same,clonogenicity / colony forming capacity of Fancd2−/− stromal cells,[1]; listed as Mek-i,improved
same,Erk1/2 phosphorylation,Fancd2−/− stromal cells; mouse stromal cells exposed to MEK inhibitor,inhibition of Erk1/2 phosphorylation; also recorded: reduces p-Erk1/2 expression
COc1cc2c(cc1OC)CN(C(=O)/C=C/c1c(-c3ccccc3)n(C)c3ncccc13)CC2 [SIS3],NHEJ activity,U2OS cells [2],decreased NHEJ
same,phosphorylation of DNA-PK,U2OS cells [3],blocks phosphorylation of DNA-PK
same,FA cells survival in the presence of MMC,[4]; FA cell lines with inhibitor,improved FA cells survival in the presence of MMC
same,cytotoxicity of corrected FA cells,[4]; corrected FA cells,do not significantly alter cytotoxicity of corrected FA cells
GC1008: anti-human TGF-β neutralizing antibody,number of FA-like HSPCs with 53BP1 foci,"FA-like HSPCs; MMC 100 ng/mL 2 h, 24 h recovery",significantly reduced
same,number of FA-like HSPCs with γH2AX foci,"FA-like HSPCs; MMC 100 ng/ml 2 hrs, 24 hrs recovery",significantly reduced
same,clonogenic capacity of FA-like HSPCs,[5],markedly rescuing the clonogenic capacity
same,engraftment of primary FA-like CD34+ cells,[6],enhanced the engraftment
same,clonogenic defects of primary HSPCs from FA patients,[7],rescued the clonogenic defects
"TGF-β1: recombinant TGFβ1 cytokine (human from ProPeptide, mouse from R&D)",phosphorylation of DNA-PK,U2OS cells [3],activated phosphorylation of DNA-PK
same,pErk1/2 after mTGFβ1 exposure,Fancd2−/− stromal cells; FA stromal cells,further activated pErk1/2
same,clonogenic ability of Fancd2−/− HSPCs,Fancd2−/− HSPCs,inhibited
